Measured values reported in ChEMBL document CHEMBL5247638, “From rational design to serendipity: Discovery of novel thiosemicarbazones as potent trypanocidal compounds” (Eur J Med Chem, 2022).
Active and inactive are the calls of the source. No cut-off for these calls is given here.

What was measured:
[1] = tested on: Trypanosoma brucei; test: Inhibition of TbrCatL using Z-FR-AMC as substrate at 100 uM by fluorimetric analysis relative to control
[2] = tested on: Trypanosoma brucei; test: Inhibition of TbrCatL using Z-FR-AMC as substrate at 100 uM preincubated for 10 mins followed by substrate addition by fluorimetric analysis relative to control
[3] = molecular target: Cruzipain (Trypanosoma cruzi, UniProt P25779); test: Inhibition of Trypanosoma cruzi cruzain using Z-FR-AMC as substrate preincubated for 10 mins followed by substrate addition by fluorimetric analysis
[4] = Inhibition of TbrCatL using Z-FR-AMC as substrate preincubated for 10 mins followed by substrate addition by fluorimetric analysis; set-up: species or system Trypanosoma brucei
[5] = tested on: Trypanosoma brucei; test: Antiparasitic activity against Trypanosoma brucei incubated for 72 hrs by SYBR Green 1 dye based fluorescence assay; format: functional, organism-based
[6] = tested on: Trypanosoma cruzi; test: Antiparasitic activity against Trypanosoma cruzi CA-I/72 incubated for 72 hrs by DAPI staining based microscopic analysis; format: functional, organism-based; conditions: CA-I/72, 72 h
[7] = Selectivity index, ratio of CC50 for mouse myoblasts cells to EC50 for Trypanosoma cruzi CA-I/72; format: toxicity; conditions: read-out: Ratio CC50/EC50
[8] = molecular target: Cruzipain (Trypanosoma cruzi) (UniProt P25779); test: Inhibition of Trypanosoma cruzi cruzain using Z-FR-AMC as substrate at 100 uM by fluorimetric analysis relative to control
[9] = molecular target: Cruzipain (Trypanosoma cruzi) (UniProt P25779); test: Inhibition of Trypanosoma cruzi cruzain using Z-FR-AMC as substrate at 100 uM preincubated for 10 mins followed by substrate addition by fluorimetric analysis relative to control
[10] = molecular target: Nonstructural protein 3 (Zika virus) (UniProt A0A024AXB9); test: Inhibition of Zika virus NS2B-NS3 protease using Bz-Nle-Lys-Lys-Arg-AMC as substrate at 0.78 uM preincubated for 10 mins followed by substrate addition relative to control
[11] = Inhibition of TbrCatL using Z-FR-AMC as substrate preincubated for 10 mins followed by substrate addition in presence of 0% Triton by fluorimetric analysis; set-up: species or system Trypanosoma brucei
[12] = Inhibition of TbrCatL using Z-FR-AMC as substrate preincubated for 10 mins followed by substrate addition in presence of 0.01% Triton by fluorimetric analysis; set-up: species or system Trypanosoma brucei
[13] = Inhibition of TbrCatL using Z-FR-AMC as substrate preincubated for 10 mins in presence of BSA followed by substrate addition by fluorimetric analysis; set-up: species or system Trypanosoma brucei
[14] = molecular target: Cruzipain (Trypanosoma cruzi) (UniProt P25779); test: Inhibition of Trypanosoma cruzi cruzain using Z-FR-AMC as substrate at 0.25 to 1 uM incubated for 10 mins by fluorimetric analysis; conditions: dose 0.25-1 µM
[15] = tested on: Trypanosoma cruzi; test: Potency index, ratio of pentamidine EC50 to test compound EC50 for antiparasitic activity against Trypanosoma cruzi CA-I/72 incubated for 72 hrs by DAPI staining based microscopic analysis; format: functional
[16] = tested on: Trypanosoma cruzi; test: Potency index, ratio of benznidazole EC50 to test compound EC50 for antiparasitic activity against Trypanosoma cruzi CA-I/72 incubated for 72 hrs by DAPI staining based microscopic analysis; format: functional
[17] = Inhibition of TbrCatL using Z-FR-AMC as substrate preincubated for 10 mins followed by substrate addition in presence of 0.1% Triton by fluorimetric analysis; set-up: species or system Trypanosoma brucei

Cruzipain (Trypanosoma cruzi), sequence (P25779 123-467 limits assumed): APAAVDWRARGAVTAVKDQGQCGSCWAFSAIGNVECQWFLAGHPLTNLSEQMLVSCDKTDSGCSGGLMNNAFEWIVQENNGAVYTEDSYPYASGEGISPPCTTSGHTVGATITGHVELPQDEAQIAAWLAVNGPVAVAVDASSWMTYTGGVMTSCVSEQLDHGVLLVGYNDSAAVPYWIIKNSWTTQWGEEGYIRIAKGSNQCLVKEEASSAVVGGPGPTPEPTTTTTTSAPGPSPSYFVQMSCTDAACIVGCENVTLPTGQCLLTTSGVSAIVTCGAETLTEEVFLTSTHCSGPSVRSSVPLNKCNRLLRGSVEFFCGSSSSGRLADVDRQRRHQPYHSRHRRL
Cruzipain, sequence (P25779 whole entry): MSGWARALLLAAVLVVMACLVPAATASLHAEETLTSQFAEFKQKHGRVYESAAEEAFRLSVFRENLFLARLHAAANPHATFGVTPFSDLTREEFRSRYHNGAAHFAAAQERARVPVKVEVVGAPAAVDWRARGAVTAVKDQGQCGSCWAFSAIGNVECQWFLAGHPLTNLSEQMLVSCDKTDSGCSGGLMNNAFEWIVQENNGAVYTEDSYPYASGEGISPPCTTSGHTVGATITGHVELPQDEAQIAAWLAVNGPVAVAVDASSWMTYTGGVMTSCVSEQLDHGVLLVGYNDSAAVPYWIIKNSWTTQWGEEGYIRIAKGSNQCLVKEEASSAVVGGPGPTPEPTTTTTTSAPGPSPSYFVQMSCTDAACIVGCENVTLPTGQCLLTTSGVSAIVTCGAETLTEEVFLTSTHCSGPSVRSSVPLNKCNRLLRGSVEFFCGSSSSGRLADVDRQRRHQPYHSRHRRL
Nonstructural protein 3 (Zika virus), sequence (A0A024AXB9 as listed by the source): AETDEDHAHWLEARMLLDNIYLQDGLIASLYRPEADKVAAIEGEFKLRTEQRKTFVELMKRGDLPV

SMILES	inhibition [1]	inhibition [2]	IC50 [3]	IC50 [4]	EC50 [5]	EC50 [6]	inhibition [8]	other results
Clc1cc(Br)ccc1-c1ccc(CNCCN2CCOCC2)o1	62%	60%	92 µM	79 µM	24.4 µM	0.59 µM	–	selectivity ratio [7]: > 17
N/C(S)=N/N=C/c1ccc(-c2ccc(Cl)cc2)o1	14%	96%	–	0.04 µM	27 µM	0.56 µM	19%	inhibition [9]: 94%; inhibition [10]: 24%; IC50 [11]: 0.07 µM; IC50 [12]: 0.04 µM; IC50 [13]: 15 µM; inhibition [14]: inactive
Clc1ccc(-n2cc(CNCC3CCNCC3)nn2)cc1	–	–	–	168 µM	49.7 µM	> 10 µM	–	–
NC(=S)N/N=C/c1cn(-c2ccc(Cl)cc2)nn1	73%	91%	–	16.5 µM	> 50 µM	> 10 µM	52%	inhibition [9]: 72%; IC50 [11]: 1 µM; IC50 [12]: 16 µM
OCCNCc1cn(-c2ccc(Cl)cc2)nn1	–	–	–	–	> 50 µM	> 10 µM	–	–
OCC(CO)NCc1ccc(-c2ccc(Cl)c(C(F)(F)F)c2)o1	0%	51%	133 µM	–	> 50 µM	> 10 µM	–	–
OCCNCc1ccc(-c2ccc(Br)cc2Cl)o1	68%	67%	51 µM	78 µM	13 µM	> 10 µM	–	–
CN(C)CCCNCc1ccc(-c2ccc(Br)cc2)o1	59%	–	–	–	–	–	79%	–
OCCNCc1ccc(-c2ccc(Cl)c(Cl)c2)o1	29%	40%	–	–	> 50 µM	> 10 µM	62%	inhibition [9]: 55%
NC(=S)N/N=C/c1ccc(-c2ccc(Cl)cc2)o1	–	–	1 µM	–	–	–	–	selectivity ratio [7]: > 18
OCCNCc1cn(-c2ccc(Cl)c(Cl)c2)nn1	–	–	–	–	> 50 µM	> 10 µM	–	–
OCCNCc1cn(-c2ccc(Br)cc2Cl)nn1	–	–	–	–	> 50 µM	> 10 µM	–	–
NC(=S)N/N=C/c1cn(-c2ccc(Br)cc2Cl)nn1	25%	98%	–	2.5 µM	> 50 µM	> 10 µM	16%	inhibition [9]: 6%; IC50 [11]: 0.6 µM; IC50 [12]: 2 µM
OCC(CO)NCc1ccc(-c2ccc(Br)cc2Cl)o1	64%	–	149 µM	90 µM	39.5 µM	> 10 µM	–	–
O=C(Cn1ccnc1[N+](=O)[O-])NCc1ccccc1 [BENZNIDAZOLE]	–	–	–	–	–	5.4 µM	–	selectivity ratio [7]: > 9
CN(C)CCCNCc1ccc(-c2ccc(Cl)cc2Cl)o1	81%	–	–	–	–	–	67%	–
NC(=S)N/N=C/c1ccc(-c2ccc(Br)cc2Cl)o1	22%	90%	0.45 µM	0.05 µM	> 50 µM	0.027 µM	17%	inhibition [9]: 70%; inhibition [10]: 8%; selectivity ratio [7]: > 370; Ratio EC50 [15]: 200; Ratio EC50 [16]: 200; IC50 [11]: 0.006 µM; IC50 [12]: 0.05 µM; IC50 [17]: 0.7 µM; IC50 [13]: 14 µM; inhibition [14]: inactive
O=C(NCCO)c1cn(-c2ccc(Br)cc2Cl)nn1	–	–	–	–	> 50 µM	> 10 µM	–	–
